Assay results as given in article PMC3930583 (PLoS Pathogens, 2014).

Experiments:
[1] = target: T1, GST-AvrBsT (Xanthomonas euvesicatoria, UniProt A0ABS8LK00); format: biochemical
[2] = target: T1, GST-AvrBsT; format: biochemical; remark: listed apart in the source

| SMILES | 14C autoacetylation, SDS-PAGE autoradiography [1] | 14C autoacetylation with and without IP6, autoradiography [2] |
| --- | --- | --- |
| CC(=O)SCCNC(=O)CCNC(=O)[C@H](O)C(C)(C)COP(=O)(O)OP(=O)(O)OC[C@H]1O[C@@H](n2cnc3c(N)ncnc32)[C@H](O)[C@@H]1OP(=O)(O)O [14C-acetyl-coenzyme A] | Wild-type GST-AvrBsT activity resulted in auto-acetylation of the enzyme and trans-acetylation of GST-ACIP1 |  |
| O=P(O)(O)O[C@H]1[C@H](OP(=O)(O)O)[C@@H](OP(=O)(O)O)[C@H](OP(=O)(O)O)[C@@H](OP(=O)(O)O)[C@H]1OP(=O)(O)O [inositol hexakisphosphate] |  | Auto-acetylation of GST-AvrBsT was detected in the presence of IP6 but not its absence |
